This note sets out measurements from patent publication US20210180095A1 (SHELL OIL COMPANY, priority 2017, published 2021).

The target in data set [1] is T1, P. thermopropionicum HmfF (Pelotomaculum thermopropionicum, UniProt A5D4Z9). The following applies: substrate specificity.
Description: Subsequently, HmfF was purified and assayed under anaerobic conditions. […] All subsequent assays were performed at 50° C.
The subject of a further data set is G. kaustophilus HmfF. In words: HmfF carboxylation reactions assayed by HPLC. It counts as biochemical, Geobacillus kaustophilus. The note with it: 50 mM furoic acid, 3 M ammonium bicarbonate, 50° C. overnight. The procedure:
(§1) […] The sample was centrifuged at 16100 g to remove precipitate and […] added to 980 μl 50% v/v H2O/acetonitrile. Sample analysis was performed using an Agilent 1260 Infinity Series HPLC equipped with a UV detector. The stationary phase was a Kinetex […] C18 100A column, 250×4.6 mm The mobile phase was acetonitrile/water (50/50) with 0.1% TFA at a flow rate of 1 ml/min, and unless otherwise stated detection was performed at a wavelength of 265 nm.

Data set [2] deals with T1, P. thermopropionicum HmfF. In words: HmfF carboxylation reactions assayed by HPLC. Format: biochemical. The note with it: 50 mM furoic acid, 3 M ammonium bicarbonate, 50° C. overnight. The procedure: as §1
Data set [3] has as its system P. thermopropionicum HmfF H297F variant. In words: Reconstituted holo-PtHmfF decarboxylation assay (FIG. 7), H297F variant. It counts as biochemical, Pelotomaculum thermopropionicum. The following applies: 1 mM substrate. On the procedure: (§2) Mutagenesis primers were designed using the QuikChange® Primer Design Program (http://www.genomics.agilent.com/primerDesignProgram.jsp). PCR was performed using Phusion polymerase (NEB). Template was removed by DpnI (NEB) digest and the PCR product transformed into E. coli NEB5-alpha. Once the presence of the desired mutation was confirmed by DNA sequencing, the plasmid was transformed into E. coli BL21(DE3). The three variants transformed into E. coli BL21(DE3) includes one with a mutation of H297N, a second with H297F, and a third of R305Q.
(§3) Protein was expressed in BL21(DE3) grown at 37° C./180 rpm in LB broth supplemented with 50 μg/ml ampicillin At mid-log phase cells were induced with 0.25 mM IPTG and grown overnight at 15° C./180 rpm and then harvested by centrifugation (4° C., 7000 g for 10 minutes). Cell pellets were resuspended in buffer A (200 mM KCl, 1 mM MnCl2, 50 mM Tris pH 7.5) supplemented with DNase, RNase, lysozyme (Sigma) and Complete EDTA-free protease inhibitor cocktail (Roche). Cells were lysed using a French press at 1500 psi and the lysate incubated at 50° C. for 30 minutes to precipitate host proteins. The lysate was clarified by centrifugation at 125,000 g for 90 minutes. […]

For data set [4], the system named is P. thermopropionicum HmfF wild-type (WT). In words: Reconstituted holo-PtHmfF decarboxylation assay (FIG. 7), wild-type. Format: biochemical, Pelotomaculum thermopropionicum. The note with it: 1 mM substrate; for observed kcat (decarboxylation activity): pH6, 50° C., anaerobic. The procedure:
Reconstitution and Assays were performed anaerobically within a 100% N2-atmosphere glove box (Belle Technology, UK).
Holo-PtHmfF (e.g., an enzyme with its cofactors) was obtained by reconstituting single expressed HmfF with reduced prFMN under anaerobic conditions as described previously for the UbiD from E. coli in Marshall, S. A., Fisher, K., Ni Cheallaigh, A., White, M. D., Payne, K. A., Parker, D. A., Rigby, S. E., and Leys, D. (2017) Oxidative Maturation and Structural Characterization of Prenylated FMN Binding by UbiD, a Decarboxylase Involved in Bacterial Ubiquinone Biosynthesis. The Journal of biological chemistry 292, 4623-4637. In general, a reaction consisting of 1 mM FMN, 2 mM DMAP (Sigma), 50 μM Fre reductase and 50 μM UbiX in buffer A was started by the addition of 5 mM NADH. Following incubation, the reaction mixture was filtered through 10 k MWCO centrifugal concentrator to remove UbiX and Fre proteins. The filtrate containing the prFMN product was used to reconstitute anaerobic apo-HmfF (e.g., an enzyme without its cofactors) in a 2:1 molar ratio, with excess cofactor being removed using a PD25 desalting column (GE Healthcare). Use of holo-PtHmfF ensures the activity observed in the enzymatic activity assay below is minimally impacted by the presence or absence of cofactors.
Assays were performed by UV-vis spectroscopy using a Cary 50 Bio spectrophotometer (Varian).

The test system of data set [5] is P. thermopropionicum HmfF R305Q variant. Description: Reconstituted holo-PtHmfF decarboxylation assay (FIG. 7), R305Q variant. The following applies: 1 mM substrate. Format: biochemical, Pelotomaculum thermopropionicum. The procedure:
as §2, §3

A short description of data set [6]: Effect of pH, temperature and oxygen on HmfF decarboxylation activity (UV-vis).

With `O=C(O)c1ccc(C(=O)O)s1` [2,5-thiophenedicarboxylic acid], the “decarboxylation by purified P. thermopropionicum HmfF” value in data set [1] is recorded as “no decarboxylation detected”.

In the case of `O=C(O)c1ccoc1C(=O)O` [2,3-furandicarboxylic acid], the “decarboxylation by purified P. thermopropionicum HmfF” value in data set [1] is listed as “no decarboxylation detected”.

Take `O=C(O)c1ccc(CO)o1` [5-hydroxymethyl-2-furoic acid]: the “decarboxylation by purified P. thermopropionicum HmfF” value in data set [1] was “no decarboxylation detected”.

For the molecule `O=C(O)c1ccco1` [furoic acid], the “carboxylation of furoic acid to FDCA (HPLC peak)” value (in the data set with G. kaustophilus HmfF; in data set [2]) was “co-migrates with an FDCA standard” each time. In addition, the “decarboxylation by purified P. thermopropionicum HmfF” value in data set [1] is listed as “could not further decarboxylate”.

With `O=C(O)c1ccc(C(=O)O)cc1` [terephthalic acid], the “decarboxylation by purified P. thermopropionicum HmfF” value in data set [1] is reported as “no decarboxylation detected”.

For `O=C(O)/C=C/C=C/C(=O)O` [muconic acid], in data set [1], the “decarboxylation by purified P. thermopropionicum HmfF” value is recorded as “no decarboxylation detected”.

Take `O=C(O)c1ccc(C(=O)O)[nH]1` [PDCA, 2,5-pyrrol-dicarboxylic acid]: the decarboxylation activity result in data set [3] is reported as “did not exhibit any measurable decarboxylation activity”. Besides, in data set [4], the “decarboxylation activity relative to the activity for FDCA” value is listed as “about 2.5%” and the “observed kcat (decarboxylation activity)” value is on record as “less than 0.1 kcat/s”. Further, in data set [5], the decarboxylation activity entry was “did not exhibit any measurable decarboxylation activity”.

For the molecule `O=C(O)c1ccc(C(=O)O)o1` [FDCA, 2,5-furandicarboxylic acid], the decarboxylation activity result in data set [3] and in data set [5] was “did not exhibit any measurable decarboxylation activity” throughout. Further, the “decarboxylation by purified P. thermopropionicum HmfF” value in data set [1] is “capable of decarboxylating”. Further, in data set [4], the “observed kcat (decarboxylation activity)” value is “greater than 4 kcat/s”.

As for `O=C(O)c1cccc(C(=O)O)n1` [2,6-pyridinedicarboxylic acid], the “decarboxylation by purified P. thermopropionicum HmfF” value in data set [1] was “no decarboxylation detected”.

As to `O=C(O)c1cccc(C(=O)O)c1` [isophthalic acid], the “decarboxylation by purified P. thermopropionicum HmfF” value in data set [1] is “no decarboxylation detected”.

Take `O=C(O)c1ccc([N+](=O)[O-])o1` [5-nitro-2-furoic acid]: the “decarboxylation by purified P. thermopropionicum HmfF” value in data set [1] is given as “no decarboxylation detected”.

B1: P. thermopropionicum HmfF: HmfF enzyme (2,5-furandicarboxylic acid decarboxylase) of SEQ ID NO:1 from the thermophilic bacterium Pelotomaculum thermopropionicum (protein, listed as Pelotomaculum thermopropionicum)
chain: MSHSLREWLAFLEGKGKLKRVRKEVDPVFEIAALGKQADGICSLLFERVKGYAVPVVTGLAGDRELFAAAMSVPVEGMLEKLAAAVENPVPCRLVSPDGAPVKECIIRENIDLLKMLPIPTHHAGDAGPYITAAILIARDPDSGVRNVSIHRLQVTGPDRLGILILPRHLWHFFGKAERAGRPLEIALAIGVHPAVLLASQATTRLGVDELEIASALLPQPLELVKCETVDVEVPAGAEIVIEGKILPGVREVEGPFGEYPRYYGPAAPRPVVEVTAVTHRRQPVYHTIIPASREHLLLGGIAREAVLLQTVRQAVPTVKNVHLTPGGSCRYHAVISIEKKHEGEAKNAIFAAFTSSSEVKHVVVVDHEINIFDPEEVEWAVATRCQAGRDVFIVKDAMGNRLDPSSRDGVSDKMGIDATIPLNLPGERFERISIPGLDKIKLADYLE
The molecule B1 had an activation energy in data set [6] (Arrhenius plot of the 25° C.-50° C. data points) of 19.3 kcal/mol. The “temperature maximum of enzyme activity” value in data set [6] (FDCA decarboxylation, anaerobic) was approximately 60 °C.
